According to the supplement of paper PMC13380429:

Experiments:
Conditions in all cases: 72 h
HepG2 [1] = assay: drug sensitivity score (DSS) for viability; higher = more toxic; extreme values may be limits of the assay
Vero E6 [2] = assay: as above
Caco-2 [3] = assay: as above
Calu-3 [4] = assay: as above
U2OS [5] = assay: as above
HepG2 [6] = assay: relative viability EC50 (midpoint between 100% and the lowest measured viability); higher = less toxic
Vero E6 [7] = assay: as above
Caco-2 [8] = assay: as above
Calu-3 [9] = assay: as above
U2OS [10] = assay: as above
HepG2 [11] = assay: cell viability relative to DMSO; higher = less toxic
Vero E6 [12] = assay: as above
Caco-2 [13] = assay: as above
Calu-3 [14] = assay: as above
U2OS [15] = assay: as above

Structure (SMILES) | drug sensitivity score (HepG2 [1]) | drug sensitivity score (Vero E6 [2]) | drug sensitivity score (Caco-2 [3]) | drug sensitivity score (Calu-3 [4]) | drug sensitivity score (U2OS [5]) | relative viability EC50 (HepG2 [6]) [µM] | relative viability EC50 (Vero E6 [7]) [µM] | relative viability EC50 (Caco-2 [8]) [µM] | relative viability EC50 (Calu-3 [9]) [µM] | relative viability EC50 (U2OS [10]) [µM] | cell viability (HepG2 [11]; 1 nM) [%] | cell viability (HepG2 [11]; 10 nM) [%] | cell viability (HepG2 [11]; 100 nM) [%] | cell viability (HepG2 [11]; 1000 nM) [%] | cell viability (HepG2 [11]; 10000 nM) [%] | cell viability (Vero E6 [12]; 1 nM) [%] | cell viability (Vero E6 [12]; 10 nM) [%] | cell viability (Vero E6 [12]; 100 nM) [%] | cell viability (Vero E6 [12]; 1000 nM) [%] | cell viability (Vero E6 [12]; 10000 nM) [%] | cell viability (Caco-2 [13]; 1 nM) [%] | cell viability (Caco-2 [13]; 10 nM) [%] | cell viability (Caco-2 [13]; 100 nM) [%] | cell viability (Caco-2 [13]; 1000 nM) [%] | cell viability (Caco-2 [13]; 10000 nM) [%] | cell viability (Calu-3 [14]; 1 nM) [%] | cell viability (Calu-3 [14]; 10 nM) [%] | cell viability (Calu-3 [14]; 100 nM) [%] | cell viability (Calu-3 [14]; 1000 nM) [%] | cell viability (Calu-3 [14]; 10000 nM) [%] | cell viability (U2OS [15]; 1 nM) [%] | cell viability (U2OS [15]; 10 nM) [%] | cell viability (U2OS [15]; 100 nM) [%] | cell viability (U2OS [15]; 1000 nM) [%] | cell viability (U2OS [15]; 10000 nM) [%]
Clc1ccc(Cn2c(CN3CCCC3)nc3ccccc32)cc1 [clemizole] | 0 | 0 | 0.5 | 0 | 0 | > 10 | > 10 | > 10 | > 10 | > 10 | 112 | 111 | 94.3 | 106 | 89.1 | 102 | 104 | 103 | 99.2 | 92.3 | 95.5 | 94.7 | 97.6 | 97 | 84.7 | 95.7 | 98.4 | 101 | 101 | 107 | 101 | 97.7 | 98.6 | 105 | 97.8
CC(=O)NCC(=O)N1[C@@H]2CC[C@H]1c1ccc(Nc3ncc(C(F)(F)F)c(NC4CCC4)n3)cc12 | 9.7 | 5.2 | 6.2 | 0.1 | 9.6 | 1.27 | 1.39 | 1.28 | > 10 | 1.37 | 93.8 | 99.6 | 84.6 | 62.4 | 3.4 | 92.6 | 98.6 | 96.6 | 82.1 | 46 | 95.9 | 89.2 | 101 | 79.3 | 40.7 | 101 | 97.7 | 99.4 | 121 | 83 | 98.6 | 97.4 | 94.4 | 67.3 | 2.9
O=C(O)C(Cc1ccccc1[N+](=O)[O-])=NNc1nc(-c2ccc(Cl)c(Cl)c2)cs1 [4EGI-1] | 4.3 | 0 | 0.1 | 0 | 0 | 1.96 | > 10 | > 10 | > 10 | > 10 | 101 | 104 | 102 | 91.6 | 45.5 | 97.9 | 95.3 | 96.7 | 92 | 100 | 87.1 | 103 | 98.1 | 112 | 84.8 | 98.1 | 100 | 97.7 | 104 | 96.7 | 94.5 | 96.7 | 93.8 | 93.7 | 93.1
C[C@H]1CC[C@H](n2c3cnccc3c3cnc(Nc4ccc5c(n4)CCN(C(=O)CO)C5)nc32)CC1 [AMG-925] | 0 | 0 | 0 | 0 | 0 | > 10 | > 10 | > 10 | > 10 | > 10 | 105 | 90.3 | 113 | 100 | 101 | 99.6 | 92.8 | 96.1 | 95.9 | 104 | 112 | 95.5 | 96.4 | 95.3 | 91.3 | 95.1 | 109 | 100 | 109 | 93 | 98.8 | 100 | 97.1 | 99.4 | 96.7
Cc1cccc(COc2cccc(/C=C3\C(=O)NN(c4ccccc4)C3=O)c2)c1 [Y16] | 0 | 0.2 | 0 | 0 | 0 | > 10 | > 10 | > 10 | > 10 | > 10 | 92.8 | 93.5 | 98.3 | 103 | 87.6 | 98.5 | 96.7 | 98.8 | 96.8 | 87.8 | 100 | 97.9 | 101 | 93.6 | 100 | 104 | 104 | 97.3 | 102 | 102 | 99.5 | 98.4 | 97.9 | 93.6 | 97.8
CCN(c1cc(-c2ccc(CN3CCOCC3)cc2)cc(C(=O)NCc2c(C)cc(C)[nH]c2=O)c1C)C1CCOCC1 [tazemetostat] | 0 | 0 | 0 | 0 | 0 | > 10 | > 10 | > 10 | > 10 | > 10 | 86.1 | 97 | 90.3 | 96.9 | 95.3 | 96.2 | 97.7 | 95.2 | 98.9 | 98.9 | 91.9 | 101 | 98.9 | 101 | 92.6 | 91.2 | 103 | 98.3 | 98 | 104 | 97.7 | 96.9 | 101 | 102 | 93.8
C=C1C[C@]23C[C@@]1(O)CC[C@H]2[C@@]12C=C[C@H](O)[C@@](C)(C(=O)O1)[C@H]2[C@@H]3C(=O)O [MD-920] | 0 | 0 | 0 | 0 | 0 | > 10 | > 10 | > 10 | > 10 | > 10 | 95.5 | 107 | 94.2 | 99 | 104 | 100 | 94.6 | 86.7 | 102 | 116 | 99.9 | 85.4 | 104 | 95.1 | 90.3 | 96.1 | 106 | 108 | 105 | 91.1 | 95.1 | 96.1 | 104 | 101 | 97
NC(N)=Nc1nc(CSCC/C(N)=N/S(N)(=O)=O)cs1 [Famotidine] | 0 | 0 | 0 | 0 | 0 | > 10 | > 10 | > 10 | > 10 | > 10 | 101 | 97.4 | 87.9 | 100 | 85.4 | 106 | 105 | 95.2 | 102 | 96.7 | 101 | 101 | 93.9 | 96.8 | 96.8 | 84 | 106 | 89.8 | 106 | 90.1 | 98 | 104 | 98.6 | 108 | 97.5
CCC1=C(C)CN(C(=O)NCCc2ccc(S(=O)(=O)NC(=O)N[C@H]3CC[C@H](C)CC3)cc2)C1=O [glimepiride] | 0 | 0 | 1.8 | 0 | 0 | > 10 | > 10 | > 10 | > 10 | > 10 | 83.1 | 90.7 | 104 | 98.7 | 104 | 111 | 110 | 105 | 91.9 | 95.3 | 87.2 | 94.3 | 98.9 | 91.4 | 76.2 | 98.6 | 104 | 91.7 | 104 | 98.6 | 98.9 | 99.2 | 97.7 | 99.8 | 92.1
NC(=O)OCC(COC(N)=O)c1ccccc1 [felbamate] | 0 | 0 | 0 | 0 | 0 | > 10 | > 10 | > 10 | > 10 | > 10 | 96.5 | 94.7 | 102 | 106 | 98.5 | 87.8 | 89.8 | 99.6 | 90.3 | 104 | 92.9 | 97.2 | 95.9 | 99.1 | 97.1 | 91 | 95.8 | 91.5 | 123 | 98.1 | 97.8 | 102 | 97.6 | 107 | 104
O=C(c1c(O)nc2cc(Cl)ccc2c1O)C1CC1 | 0 | 0 | 0 | 0 | 0 | > 10 | > 10 | > 10 | > 10 | > 10 | 97.7 | 112 | 89.6 | 102 | 104 | 90.4 | 98.6 | 90.1 | 95.9 | 109 | 94.7 | 91.3 | 90.1 | 93.5 | 98.4 | 96.5 | 88.1 | 106 | 97.1 | 96.5 | 99.9 | 98.6 | 102 | 96 | 98.1
NC(CO)(CO)CO [trometamol] | 0 | 0 | 0 | 0 | 0 | > 10 | > 10 | > 10 | > 10 | > 10 | 101 | 93.7 | 106 | 86 | 100 | 102 | 98.6 | 106 | 86.4 | 95.4 | 93.4 | 102 | 111 | 112 | 97.3 | 92.4 | 117 | 103 | 101 | 108 | 93.3 | 96.6 | 98.8 | 101 | 107
CN1C(=O)N[C@H](Cc2c[nH]c3c(Cl)cccc23)C1=O [necrostatin-2] | 0 | 0 | 0 | 0 | 0 | > 10 | > 10 | > 10 | > 10 | > 10 | 112 | 99.3 | 95.3 | 91.3 | 108 | 104 | 102 | 103 | 99.1 | 97.8 | 99 | 112 | 99.4 | 108 | 102 | 97.1 | 110 | 93.9 | 96.9 | 90.4 | 103 | 109 | 105 | 107 | 95.1
CCOc1ccc2ccccc2c1C(=O)N[C@@H]1C(=O)N2[C@@H]1SC(C)(C)[C@@H]2C(=O)O [nafcillin] | 0 | 0 | 0 | 0 | 0 | > 10 | > 10 | > 10 | > 10 | > 10 | 99.5 | 91.5 | 96.8 | 92.4 | 99.5 | 103 | 90.3 | 94.2 | 104 | 95.7 | 99 | 96.4 | 99.9 | 101 | 105 | 91.1 | 107 | 101 | 99.5 | 102 | 98.2 | 99.6 | 94.5 | 100 | 106
